Patent US20250215493A1, “NUCLEOTIDES WITH ENZYMATICALLY CLEAVABLE 3'-O-GLYCOSIDE BLOCKING GROUPS FOR SEQUENCING” (Illumina, Inc., priority 2023, published 2025)
Values belong to the compound of their own block, whether it stands above or below them.

Columns and labels:
[1] = system: α-Mannosidase 92B, Bacteroides thetaiotaomicron; assay: Cleavage of 3′-glycoside thymidine by glycosyl hydrolases (HPLC); type: biochemical; settings: 100 mM HEPES pH 7.0, 2 mM CaCl2, 37° C.
Experimental: (§1) The cleavage of the 3′-glycoside moiety from 3′-(β)-glucopyranoside thymidine, 3′-(β)-xylopyranoside thymidine and 3′-(α)-mannopyranoside thymidine using glycosyl hydrolases was tested by incubating the nucleoside substrate (200 μM) with the enzyme (2 μM) in buffer. At set timepoints, 50 μL aliquots of the reaction solution were taken and quenched with 50 μL of either 0.1 M EDTA or […]. The aliquots were then analysed by reverse phase HPLC (YMC-Triart C18 Column, 12 nm, 5 μm, 250×4.6 mm column) using a gradient from 0% to 8% acetonitrile in 0.1 M TEAB over 25 minutes, monitoring the disappearance of the 3′-glycopyranoside thymidine substrate peak and the appearance of the thymidine product peak.

[2] = system: α-Mannosidase 92S, Bacteroides thetaiotaomicron; assay: as above; type: biochemical; settings: 100 mM HEPES pH 7.0, 2 mM CaCl2, 37° C.
Experimental: as §1

[3] = system: β-Glucosidase 1A, Thermus thermophilus; assay: as above; type: biochemical; settings: 100 mM sodium citrate pH 6.5, 50° C.; 200 μM substrate, 2 μM enzyme
Experimental: as §1

[4] = system: β-Glucosidase 3B, Cellvibrio japonicus; assay: as above; type: biochemical; settings: 37° C.
Experimental: as §1

[5] = system: β-Glucosidase 1A, Thermobifida fusca; assay: as above; type: biochemical; settings: 100 mM HEPES pH 7.0, 50° C.; 200 μM substrate, 2 μM enzyme
Experimental: as §1

[6] = system: Xylosidase 3A, Sulfolobus solfataricus; assay: as above; type: biochemical; settings: 100 mM MES pH 6.0, 50° C.
Experimental: as §1

[7] = system: Xylosidase 39A, Clostridium stercorarium; assay: as above; type: biochemical; settings: 100 mM MES pH 6.0, 5 mM CaCl2, 50° C.
Experimental: as §1

[8] = system: Xylosidase 43A, Thermobifida fusca; assay: as above; type: biochemical; settings: 100 mM sodium citrate pH 5.5, 50° C.
Experimental: as §1

Pol A (SBS polymerase) = assay: Sequencing flowcell assay, loss of % T call signal on incorporation of unlabeled 3′ blocked dTTP; type: biochemical
Experimental: (§2) A further example examined whether cleavage of 3′-ABF is feasible on DNA clusters on the surface of a sequencing flow cell. To this end, a sequencing assay monitoring the loss and recovery of % T call signal as read-out was carried out using an Illumina NextSeq 2000 instrument with a P2 flow cell. FIG. 4A illustrates the sequencing assay workflow using loss and recovery of % T call signal as readout, including: (1) The % T call signal baseline based on a standard Illumina Green ffT (e.g., ffT-3′-AZM-LN3-AF550POPOso) is first established with a series of SBS cycles using standard SBS chemistry; (2) incorporation by Pol A (SBS polymerase) of unlabeled dTTP with a different 3′-block (i.e., 3′-ABF dTTP or 3′-AOM dTTP used as control) results in the loss of this signal; (3) the % T signal is only partially recovered to around 75% relative to the initial baseline in subsequent standard cycles as around 25% DNA clusters are blocked by the alternative 3′-block which is uncleaved under standard SBS chemistry conditions; (4) injection of the cleavage mix specifically removing this block (i.e., ABFase removing the 3′-ABF or Pd catalyst removing 3′-AOM for the control experiment) followed by standard cycles resulting in the full recovery of the signal. […]

C. japonicum ABFase = assay: Sequencing flowcell assay, recovery of % T call signal after enzymatic cleavage from DNA clusters; type: biochemical; settings: 30 minutes, 60° C., pH 5.5
Experimental: as §2

C. japonicus GH51 ABFase = assay: Enzymatic cleavage of 3′-ABF deoxythymidine by GH51 ABFase (HPLC); type: biochemical, Cellvibrio japonicus; settings: 37° C., sodium citrate pH 5.5; 200 μM substrate, 2 μM enzyme
Experimental: (§3) Candidate arabinofuranosidases (ABFases) were tested for hydrolysis of 3′-ABF. 3′-ABF deoxythymidine was preincubated in […] sodium citrate pH 5.5 or sodium phosphate pH 6.5 at designated temperatures for 5 minutes. Enzyme was added to the reaction so that the final reaction contained 200 μM substrate and 2 μM enzyme. At indicated time points, 50 μL aliquots were removed and quenched with 50 μL 0.1N NaOH prior to analysis by HPLC (YMC Triart C18, 250×4.5 mm, S-5 μm, 12 nm, 0.1M TEAB/100% Acetonitrile) to determine the percentage of enzymatically unblocked nucleotide (or % deprotection).
(§4) Various arabinofuranosidases (ABFases) included CAZy Glycoside Hydrolases family 51 (GH51) from Thermotoga maritima, Cellvibrio japonicus, Clostridium thermocellum, Bacillus subtilis, and Podosporina anserina. The molar ratio of enzyme to 3′-ABF deoxythymidine was 1:100 in all reaction mixes. The reaction using T. maritima ABFase was carried out at 80° C. with a sodium phosphate buffer to ensure a pH of 6.5. The reaction using C. japonicus ABFase was carried out at 37° C. with a sodium citrate buffer to ensure a pH of 5.5. The reaction using C. thermocellum ABFase was carried out at 65° C. with a sodium phosphate buffer to ensure a pH of 6.5. The reaction using B. subtilis ABFase was carried out at 60° C. with a sodium phosphate buffer to ensure a pH of 6.5. […]

B. subtilis GH51 ABFase = assay: as above; type: biochemical, Bacillus subtilis; settings: 60° C., sodium phosphate pH 6.5; 200 μM substrate, 2 μM enzyme
Experimental: as §3, §4

P. anserina GH51 ABFase = assay: as above; type: biochemical, Podosporina anserina; settings: 60° C., sodium citrate pH 5.5; 200 μM substrate, 2 μM enzyme
Experimental: as §3, §4

T. maritima GH51 ABFase = assay: as above; type: biochemical, Thermotoga maritima; settings: 80° C., sodium phosphate pH 6.5; 200 μM substrate, 2 μM enzyme
Experimental: as §3, §4

[9] = 3′-ABF blocking group stability testing (staging in incorporation buffer, UPLC); type: physicochemical
Experimental: T Nucleoside was blocked with a 3′-O-α-L-arabinofuranoside (3′-ABF,
blocking groups. 1 mL of 3′ blocked T nucleosides at 0.1 mM were made in a solution of 50 mM glycine buffer (pH 9.9), 50 mM NaCl, and 1 mM EDTA. F
These solutions were incubated at 60° C. in a heating block for 1 month. Spontaneous cleavage of the 3′-ABF under incorporation conditions (50 mM Glycine pH 9.8 at 60° C.) was measured by staging 3′-ABF deoxythymine to evaluate the stability of 3′-ABF as a blocking group. At set time points, 40 μL aliquots were taken and analyzed by UPLC (conditions/column) to determine the percentage of blocked nucleotide remaining and the eventual formation of unblocked nucleotide.

[10] = molecular target: C. thermocellum GH51 ABFase (Acetivibrio thermocellus, UniProt A3DIH0); assay: Enzymatic cleavage of 3′-ABF deoxythymidine by GH51 ABFase (HPLC); type: biochemical, Clostridium thermocellum; settings: 65° C., sodium phosphate pH 6.5; 200 μM substrate, 2 μM enzyme
Experimental: as §3, §4

[11] = system: mutant DNA polymerase Pol A; assay: Primer extension assay, incorporation into DNA (33P-labelled primer:template, PAGE); type: biochemical
Experimental: The incorporation of the 5′-triphosphate 3′-[(β)-D-glucopyranosyl]thymidine and 5′-triphosphate 3′-[(β)-D-xylopyranosyl]thymidine into DNA by a mutant DNA polymerase Pol A was tested using a primer extension assay. Briefly, a ^33P-labelled DNA primer:template (20 nM) was incubated with the DNA polymerase ([…]) and the nucleotide triphosphates (1 μM) in buffer (50 mM Glycine pH 9.6, 50 mM NaCl, 9 mM MgSO4, 1 mM EDTA) at 60° C. The rate was determined by calculating the percentage of incorporation compared to the initial primer template band and the incorporation results are shown in FIG. 6B.

[12] = 1 μM nucleotide, 50 mM Glycine pH 9.6, 60° C.

Chain of C. thermocellum GH51 ABFase (A3DIH0 whole entry): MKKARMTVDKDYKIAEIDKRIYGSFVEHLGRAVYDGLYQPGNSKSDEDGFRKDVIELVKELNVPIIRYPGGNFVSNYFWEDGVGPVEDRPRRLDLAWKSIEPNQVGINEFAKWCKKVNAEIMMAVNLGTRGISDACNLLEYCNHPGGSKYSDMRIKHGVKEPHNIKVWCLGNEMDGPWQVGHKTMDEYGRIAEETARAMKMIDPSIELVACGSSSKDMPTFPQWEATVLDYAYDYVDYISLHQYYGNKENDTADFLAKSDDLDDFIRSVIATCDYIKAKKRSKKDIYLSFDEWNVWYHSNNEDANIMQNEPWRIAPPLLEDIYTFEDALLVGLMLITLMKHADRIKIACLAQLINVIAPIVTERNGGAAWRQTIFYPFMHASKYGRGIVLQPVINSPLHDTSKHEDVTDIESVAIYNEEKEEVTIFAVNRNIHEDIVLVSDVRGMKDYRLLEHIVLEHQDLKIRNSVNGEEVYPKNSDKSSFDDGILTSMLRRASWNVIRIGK

- cleavage of the 3′-mannopyranoside group [1]: not observed
- cleavage of the 3′-mannopyranoside group [2]: not observed
SMILES: Cc1cn([C@H]2CC(O[C@H]3OC(CO)[C@@H](O)C(O)C3O)[C@@H](CO)O2)c(=O)[nH]c1=O (stereo partly drawn) [3′-(α)-mannopyranoside thymidine, 3′-[(α)-D-mannopyranosyl]thymidine]

- time to complete cleavage of the 3′-glucopyranoside group [3]: less than 2 minutes
- time to complete cleavage of the 3′-glucopyranoside group ([4]; pH 6.5 (100 mM sodium citrate)): approximately 2 hours
- time to complete cleavage of the 3′-glucopyranoside group ([4]; pH 7.5 (100 mM sodium phosphate)): approximately 2 hours
- time to complete cleavage of the 3′-glucopyranoside group [5]: less than 2 minutes
SMILES: Cc1cn([C@H]2CC(O[C@@H]3OC(CO)[C@@H](O)C(O)C3O)[C@@H](CO)O2)c(=O)[nH]c1=O (stereo partly drawn) [3′-(β)-glucopyranoside thymidine, 3′-[(β)-D-glucopyranosyl]thymidine]

- cleavage of the 3′-xylopyranoside group [6]: observed
- time to full conversion of the substrate [6]: > 22 h
- cleavage of the 3′-xylopyranoside group [7]: observed
- time to full conversion of the substrate [7]: > 22 h
- cleavage of the 3′-xylopyranoside group [8]: observed
- time to full conversion of the substrate [8]: > 22 h
SMILES: Cc1cn([C@H]2CC(O[C@@H]3OC[C@@H](O)C(O)C3O)[C@@H](CO)O2)c(=O)[nH]c1=O (stereo partly drawn) [3′-(β)-xylopyranoside thymidine, 3′-[(β)-D-xylopyranosyl]thymidine]

SMILES: Cc1cn([C@H]2C[C@H](O[C@@H]3O[C@@H](CO)[C@H](O)[C@H]3O)[C@@H](COP(=O)(O)OP(=O)(O)OP(=O)(O)O)O2)c(=O)[nH]c1=O [3′-ABF TTP, 3′-O-(α-L-arabinofuranosyl)-deoxythymidine-5′-triphosphate]
- % T fluorescence signal upon incorporation of the unlabeled nucleotide (Pol A (SBS polymerase); NextSeq 2000, P2 flow cell): fully drops
- % T fluorescence signal recovered when standard SBS cycles resume (Pol A (SBS polymerase); of the initial baseline, before enzymatic cleavage): around 75%
- recovery of the initial % T fluorescence signal after enzymatic cleavage (C. japonicum ABFase): full recovery

SMILES: Cc1cn([C@H]2C[C@H](O[C@@H]3O[C@@H](CO)[C@H](O)[C@H]3O)[C@@H](CO)O2)c(=O)[nH]c1=O [3′-ABF-dT, 3′-O-(α-L-arabinofuranosyl)-deoxythymidine]
- observed reaction constant kobs (C. japonicus GH51 ABFase): 0.03 s⁻¹
- observed reaction constant kobs (B. subtilis GH51 ABFase): 0.035 s⁻¹
- observed reaction constant kobs (P. anserina GH51 ABFase): 0.19 s⁻¹
- observed reaction constant kobs (T. maritima GH51 ABFase): 0.15 s⁻¹
- percentage of remaining blocked nucleoside ([9]; after 31 days of staging at 60° C., 0.1 mM in 50 mM glycine buffer (pH 9.9), 50 mM NaCl, 1 mM EDTA): About 100%
- stability of 3′-blocking group compared to AZM in solution ([9]; higher stability vs 3′-AZM-dT, 60° C., glycine buffer): 80-100 fold
- observed reaction constant kobs [10]: 0.01 s⁻¹

SMILES: Cc1cn([C@H]2CC(O[C@@H]3OC(CO)[C@@H](O)C(O)C3O)[C@@H](COP(=O)(O)OP(=O)(O)OP(=O)(O)O)O2)c(=O)[nH]c1=O (stereo partly drawn) [5′-triphosphate 3′-[(β)-D-glucopyranosyl]thymidine]
- incorporation observed [11, 12]: no detectable incorporation
- substrate for Pol A [11, 12]: is a poor substrate for Pol A

SMILES: Cc1cn([C@H]2CC(O[C@@H]3OC[C@@H](O)C(O)C3O)[C@@H](COP(=O)(O)OP(=O)(O)OP(=O)(O)O)O2)c(=O)[nH]c1=O (stereo partly drawn) [5′-triphosphate 3′-[(β)-D-xylopyranosyl]thymidine]
- substrate for Pol A [11, 12]: is a substrate for Pol A
- rate of incorporation ([11]; compared to 5′-triphosphate 3′-[(α)-L-arabinofuranosyl]thymidine and 5′-triphosphate 3′-allyloxymethyl thymidine, 60° C., pH 9.6): slower
